Source: patent US8309610B2, “Crystalline forms of (1RS,3RS,6RS)-6-dimethylaminomethyl-1-(3-methoxyphenyl)cyclohexane-1,3-diol hydrochloride” (priority 2005, dated 2012)
Counter-ions that a name gives are not always drawn.

Tests used:
Assay type in all cases: physicochemical
solubility in water = assay: solubility in water
[1] = water absorption / hygroscopicity
[2] = stability in organic media; details: chloroform, dioxane, ethyl acetate, hexane, tetrahydrofuran, toluene; room temperature or higher (e.g. up to 40° C.)
[3] = storage in humidity chamber, polymorph conversion
Source text: Crystalline form B in an open glas container is stored in a humidity chamber at relative humidity of 35% and room temperature. Samples were taken prior to storage and after 4, 14, 19 and 21 days of storage under these conditions.
Crystalline form B in an open glas container is stored in a humidity chamber at relative humidity of 60% and room temperature. Samples were taken prior to storage and after 7, 17 and 22 days of storage under these conditions.
Crystalline form B in an open glas container is stored in a humidity chamber at relative humidity of 75% and room temperature. Samples were taken prior to storage and after 6, 13 and 23 days of storage under these conditions.

[4] = variable temperature X-ray powder diffraction experiment; details: 90° C., after half an hour
Procedure: Variable temperature Powder Diffraction Data Collection was carried out on a Shimadzu XRD-6000X-ray powder diffractometer using Cu Kα radiation. The instrument is equipped with a fine focus X-ray tube. The tube voltage and amperage were set to 40 kV and 40 mA, respectively. The divergence and scattering slits were set at 1° and the receiving slit was set at 0.15 mm. Diffracted radiation was detected by a NaI scintillation detector. A theta-two theta continuous scan at 3°/min (0.4 sec/0.02° step) from 2,5 to 40° 2 θ was used. A silicon standard was analyzed each day to check the instrument alignment. The instrument was equipped with an Anton Paar HTK 1200 high temperature stage and a ceramic sample holder

COc1cccc([C@@]2(O)C[C@H](O)CC[C@@H]2CN(C)C)c1 (racemic) [form A, (1RS,3RS,6RS)-6-Dimethylaminomethyl-1-(3-methoxy-phenyl)cyclohexane-1,3-diol hydrochloride]
solubility in water (solubility in water): very high solubility in water
resistance to water absorption ([1]; up to 60% relative humidity, room temperature, at least up to three weeks): resistant to water absorption
stability in organic media [2]: stable in organic media

COc1cccc([C@@]2(O)C[C@H](O)CC[C@@H]2CN(C)C)c1 (racemic) [form B, (1RS,3RS,6RS)-6-Dimethylaminomethyl-1-(3-methoxy-phenyl)cyclohexane-1,3-diol hydrochloride]
crystalline form found after storage [3]: crystalline form B only
conversion to another polymorph under high humidity ([3]; high humidity): not converted to another polymorph
solid form conversion on heating [4]: converted to form E

COc1cccc([C@@]2(O)C[C@H](O)CC[C@@H]2CN(C)C)c1 (racemic) [form C, (1RS,3RS,6RS)-6-Dimethylaminomethyl-1-(3-methoxy-phenyl)cyclohexane-1,3-diol hydrochloride]
hygroscopicity ([1]; compared with all known polymorphic forms): lowest hygroscopicity of all known polymorphic forms
